US9611252B2 (LifeSci Pharmaceuticals, Inc., priority 2013, dated 2017)
Read-outs that look alike come from different tables or passages of the source.

Target: human Plasma Kallikrein (Homo sapiens (Human), UniProt P03952)
Experiment: In vitro enzyme inhibition of human plasma kallikrein (PFR-AMC cleavage)
Format: biochemical
Protocol: The ability of the compounds disclosed herein to inhibit human plasma kallikrein activity was quantified according to the procedures below.
A 10 mM solution of the test compound was made in DMSO. […] A control tube containing only DMSO is included. 16 μL of each compound test solution was combined with 384 μL of assay buffer (50 mM Tris-HCl pH 7.5, 150 mM NaCl, 0.01% Triton X-100) to yield a “4× test compound buffer stock”.
These solutions are hereby referred to as 4×hPK and 2×PFR-AMC, respectively.
50 μL was removed from this mixture and placed into duplicate wells on a Microfluor 1Black U-bottom microtiter plate (Thermo Scientific). This plate was incubated for 5 minutes at 37° C. To each well, 50 μL of pre-warmed 2×PFR-AMC was added to start the enzymatic reaction. Cleavage of PFR-AMC was monitored in a Biotek Synergy H4 reader set at 37° C. Readings are taken every 43 seconds for 1 hour. […] The IC50 is calculated using the Gen5 (Biotek Instruments).
The ability of the compounds in Table 3 to inhibit human plasma kallikrein activity was determined.

[1] = human plasma kallikrein, Pro-Phe-Arg-AMC substrate, 37° C., read-out: hPK IC50

Sequence of human Plasma Kallikrein (P03952 20-638): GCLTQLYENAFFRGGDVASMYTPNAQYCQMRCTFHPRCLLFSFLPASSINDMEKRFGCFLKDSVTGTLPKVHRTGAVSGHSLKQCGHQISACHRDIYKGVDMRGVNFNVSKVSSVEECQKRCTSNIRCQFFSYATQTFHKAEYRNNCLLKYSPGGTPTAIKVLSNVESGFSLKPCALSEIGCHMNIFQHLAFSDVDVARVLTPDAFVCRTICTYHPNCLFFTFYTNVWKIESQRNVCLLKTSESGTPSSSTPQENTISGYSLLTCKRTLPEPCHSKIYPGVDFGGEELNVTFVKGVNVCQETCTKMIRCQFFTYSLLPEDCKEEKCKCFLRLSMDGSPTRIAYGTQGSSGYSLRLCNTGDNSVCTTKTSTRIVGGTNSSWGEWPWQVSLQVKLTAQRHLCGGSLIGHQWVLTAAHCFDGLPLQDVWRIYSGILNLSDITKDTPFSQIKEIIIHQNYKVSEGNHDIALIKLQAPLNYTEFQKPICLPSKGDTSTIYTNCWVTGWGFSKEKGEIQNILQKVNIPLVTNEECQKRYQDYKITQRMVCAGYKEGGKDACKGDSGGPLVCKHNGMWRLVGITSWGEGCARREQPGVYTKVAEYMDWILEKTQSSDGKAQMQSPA

| Compound | IC50 [1] | IC50 |
| --- | --- | --- |
| N#Cc1cc(Cc2cc(C(=O)NCc3ccc4[nH]cc(Cl)c4c3F)ccn2)cc2cc(Cl)cnc12 [Example 51, N-((3-chloro-4-fluoro-1H-indol-5-yl)methyl)-2-((3-chloro-8-cyanoquinolin-6-yl)methyl)isonicotinamide] | < 100 nM |  |
| N#Cc1cc(Cc2cc(C(=O)NCc3cc4cc[nH]c4cc3F)ccn2)cc2cc(Cl)cnc12 [Example 52, 2-((3-chloro-8-cyanoquinolin-6-yl)methyl)-N-((6-fluoro-1H-indol-5-yl)methyl)isonicotinamide] | < 100 nM |  |
| Cc1cc(N)ncc1CNC(=O)c1ccnc(Cc2cc(C#N)c3ncc(Cl)cc3c2)c1 [Example 53, N-((6-amino-4-methylpyridin-3-yl)methyl)-2-((3-chloro-8-cyanoquinolin-6-yl)methyl)isonicotinamide] |  | 100 to 1000 nM |
| N#Cc1cc(Cc2cc(C(=O)NCc3n[nH]c4ccc(Cl)cc34)ccn2)cc2cc(Cl)cnc12 [Example 54, 2-(3-chloro-8-cyano-quinolin-6-ylmethyl)-N-(5-chloro-1H-indazol-3-ylmethyl)-isonicotinamide] | < 100 nM |  |
| N#Cc1cc(Cc2cc(C(=O)NCc3cnc4[nH]cc(Cl)c4c3)ccn2)cc2cc(Cl)cnc12 [Example 55, 2-(3-chloro-8-cyano-quinolin-6-ylmethyl)-N-(3-chloro-1H-pyrrolo[2,3-b]pyridin-5-ylmethyl)-isonicotinamide] | < 100 nM |  |
| Cc1cc(N)ncc1CNC(=O)c1ccnc(Cc2cc(C(N)=O)c3ncc(Cl)cc3c2)c1 [Example 63, 6-((4-(((6-amino-4-methylpyridin-3-yl)methyl)carbamoyl)pyridin-2-yl)methyl)-3-chloroquinoline-8-carboxamide] | < 100 nM |  |
| Cc1cnc2c(C#N)cc(Cc3cc(C(=O)NCc4ccc5[nH]cc(Cl)c5c4F)ccn3)cc2c1 [Example 74, N-((3-chloro-4-fluoro-1H-indol-5-yl)methyl)-2-((8-cyano-3-methylquinolin-6-yl)methyl)isonicotinamide] | < 100 nM |  |
| Cc1cnc2c(C#N)cc(Cc3cc(C(=O)NCc4n[nH]c5ccc(Cl)cc45)ccn3)cc2c1 [Example 75, N-((5-chloro-1H-indazol-3-yl)methyl)-2-((8-cyano-3-methylquinolin-6-yl)methyl)isonicotinamide] | < 100 nM |  |
| Cc1cnc2c(C#N)cc(Cc3cc(C(=O)NCc4cc5cc[nH]c5cc4F)ccn3)cc2c1 [Example 76, 2-((8-cyano-3-methylquinolin-6-yl)methyl)-N-((6-fluoro-1H-indol-5-yl)methyl)isonicotinamide] | < 100 nM |  |
| Cc1cc(N)ncc1CNC(=O)c1ccnc(Cn2cc3cc(Cl)ccc3cc2=O)c1 [Example 85, N-((6-amino-4-methylpyridin-3-yl)methyl)-2-((7-chloro-3-oxoisoquinolin-2(3H)-yl)methyl)isonicotinamide] | 100 to 1000 nM |  |
| Cc1nc(N)ccc1CNC(=O)c1ccnc(Cn2cc3cc(Cl)ccc3cc2=O)c1 [Example 86, N-((6-amino-2-methylpyridin-3-yl)methyl)-2-((7-chloro-3-oxoisoquinolin-2(3H)-yl)methyl)isonicotinamide] | 100 to 1000 nM |  |
| Cc1cc(N)nc(C)c1CNC(=O)c1ccnc(Cn2cc3cc(Cl)ccc3cc2=O)c1 [Example 87, N-((6-amino-2,4-dimethylpyridin-3-yl)methyl)-2-((7-chloro-3-oxoisoquinolin-2(3H)-yl)methyl)isonicotinamide] | 100 to 1000 nM |  |
| O=C(NCc1cc2c(Cl)c[nH]c2cc1F)c1ccnc(Cn2cc3cc(Cl)ccc3cc2=O)c1 [Example 88, 2-((7-chloro-3-oxoisoquinolin-2(3H)-yl)methyl)-N-((3-chloro-6-fluoro-1H-indol-5-yl)methyl)isonicotinamide] | 100 to 1000 nM |  |
| O=C(NCc1cc2c(Cl)c[nH]c2cc1F)c1ccnc(Cc2cc(F)c3ncc(Cl)cc3c2)c1 [Example 90, N-(3-chloro-6-fluoro-1H-indol-5-ylmethyl)-2-(3-chloro-8-fluoro-quinolin-6-ylmethyl)-isonicotinamide] | < 100 nM |  |
| COC(=O)c1cc(Cc2cc(C(=O)NCc3c(C)cc(N)nc3C)ccn2)cc2cc(Cl)cnc12 [Example 92, methyl 6-((4-(((6-amino-2,4-dimethylpyridin-3-yl)methyl)carbamoyl)pyridin-2-yl)methyl)-3-chloroquinoline-8-carboxylate] | < 100 nM |  |
| Cc1cc(N)nc(C)c1CNC(=O)c1ccnc(Cc2cc(C(=O)O)c3ncc(Cl)cc3c2)c1 [Example 93, 6-((4-(((6-amino-2,4-dimethylpyridin-3-yl)methyl)carbamoyl)pyridin-2-yl)methyl)-3-chloroquinoline-8-carboxylic acid] | < 100 nM |  |
| Cc1cc(N)nc(C)c1CNC(=O)c1ccnc(Cc2cc(CO)c3ncc(Cl)cc3c2)c1 [Example 94, N-((6-amino-2,4-dimethylpyridin-3-yl)methyl)-2-((3-chloro-8-(hydroxymethyl)quinolin-6-yl)methyl)isonicotinamide] | < 100 nM |  |

| Compound | IC50 [1] | IC50 |
| --- | --- | --- |
| COC(=O)c1cc(Cc2cc(C(=O)NCc3ccc(N)nc3C)ccn2)cc2cc(Cl)cnc12 [Example 95, methyl 6-((4-(((6-amino-2-methylpyridin-3-yl)methyl)carbamoyl)pyridin-2-yl)methyl)-3-chloroquinoline-8-carboxylate] | < 100 nM |  |
| Cc1nc(N)ccc1CNC(=O)c1ccnc(Cc2cc(C(=O)O)c3ncc(Cl)cc3c2)c1 [Example 96, 6-((4-(((6-amino-2-methylpyridin-3-yl)methyl)carbamoyl)pyridin-2-yl)methyl)-3-chloroquinoline-8-carboxylic acid] | 100 to 1000 nM |  |
| Cc1nc(N)ccc1CNC(=O)c1ccnc(Cc2cc(CO)c3ncc(Cl)cc3c2)c1 [Example 97, N-((6-amino-2-methylpyridin-3-yl)methyl)-2-((3-chloro-8-(hydroxymethyl)quinolin-6-yl)methyl)isonicotinamide] | < 100 nM |  |
| Cc1cc(N)[n+]([O-])c(C)c1CNC(=O)c1ccnc(Cc2ccc3ncc(Cl)cc3c2)c1 [Example 98, 6-amino-3-((2-((3-chloroquinolin-6-yl)methyl)isonicotinamido)methyl)-2,4-dimethylpyridine 1-oxide] | 100 to 1000 nM |  |
| Cc1cc(N)nc(C)c1CNC(=O)c1ccnc(Cc2ccc3c(cc(Cl)c[n+]3[O-])c2)c1 [Example 99, 6-((4-(((6-amino-2,4-dimethylpyridin-3-yl)methyl)carbamoyl)pyridin-2-yl)methyl)-3-chloroquinoline 1-oxide] | < 100 nM |  |
| Cc1nc(N)ccc1CNC(=O)c1ccnc(Cc2cc(Cl)c3ncc(Cl)cc3c2)c1 [Example 101, N-((6-amino-2-methylpyridin-3-yl)methyl)-2-((3,8-dichloroquinolin-6-yl)methyl)isonicotinamide] | < 100 nM |  |
| Cc1cc(N)nc(C)c1CNC(=O)c1ccnc(Cc2ccc3ncc(Cl)cc3c2F)c1 [Example 102, N-((6-amino-2,4-dimethylpyridin-3-yl)methyl)-2-((3-chloro-5-fluoroquinolin-6-yl)methyl)isonicotinamide] | < 100 nM |  |
| Cc1nc(N)ccc1CNC(=O)c1ccnc(Cc2ccc3ncc(Cl)cc3c2F)c1 [Example 103, N-((6-amino-2-methylpyridin-3-yl)methyl)-2-((3-chloro-5-fluoroquinolin-6-yl)methyl)isonicotinamide] | < 100 nM |  |
| Cc1cc(C(=O)NCc2c(C)cc(N)nc2C)cc(Cc2ccc3ncc(Cl)cc3c2)n1 [Example 104, N-((6-amino-2,4-dimethylpyridin-3-yl)methyl)-2-((3-chloroquinolin-6-yl)methyl)-6-methylisonicotinamide] | < 100 nM |  |
| Cc1cc(N)nc(C)c1CNC(=O)c1ccnc(Cn2ncc3cc(Cl)ccc32)c1 [Example 105, N-((6-amino-2,4-dimethylpyridin-3-yl)methyl)-2-((5-chloro-1H-indazol-1-yl)methyl)isonicotinamide] | < 100 nM |  |
| Cc1cc(N)nc(C)c1CNC(=O)c1ccnc(Cn2cc3cc(Cl)ccc3n2)c1 [Example 106, N-((6-amino-2,4-dimethylpyridin-3-yl)methyl)-2-((5-chloro-2H-indazol-2-yl)methyl)isonicotinamide] | < 100 nM |  |
| Cc1ccc2nn(Cc3cc(C(=O)NCc4c(C)cc(N)nc4C)ccn3)cc2c1 [Example 107, N-((6-amino-2,4-dimethylpyridin-3-yl)methyl)-2-((5-methyl-2H-indazol-2-yl)methyl)isonicotinamide] | 100 to 1000 nM |  |
| Cc1ccc2c(cnn2Cc2cc(C(=O)NCc3c(C)cc(N)nc3C)ccn2)c1 [Example 108] | < 100 nM |  |
| Cc1ccc2nc(S(C)(=O)=O)c(Cc3cc(C(=O)NCc4cc5c(Cl)c[nH]c5cc4F)ccn3)cc2c1 [Example 109, N-((3-chloro-6-fluoro-1H-indol-5-yl)methyl)-2-((6-methyl-2-(methylsulfonyl)quinolin-3-yl)methyl)isonicotinamide] | 100 to 1000 nM |  |
| Cc1ccc2cc(Cc3cc(C(=O)NCc4ccc(N)nc4C)ccn3)ccc2n1 [Example 112, N-((6-amino-2-methylpyridin-3-yl)methyl)-2-((2-methylquinolin-6-yl)methyl)isonicotinamide] | < 100 nM |  |
| Cc1cc(N)nc(C)c1CNC(=O)c1ccnc(Cc2cnc3ccc(F)cc3c2)c1 [Example 119, N-((6-amino-2,4-dimethylpyridin-3-yl)methyl)-2-((6-fluoroquinolin-3-yl)methyl)isonicotinamide] | < 100 nM |  |
| O=C(NCc1cc2c(Cl)c[nH]c2cc1F)c1ccnc(Cc2cnc3ccc(F)cc3c2)c1 [Example 120, N-((3-chloro-6-fluoro-1H-indol-5-yl)methyl)-2-((6-fluoroquinolin-3-yl)methyl)isonicotinamide] | < 100 nM |  |
